Data: patent publication US6645918B1, “N-([1,2,4]triazoloazinyl)thiophenesulfonamide compounds and their use as herbicides” (Dow AgroSciences LLC, priority 2000, dated 2003)

Legend:
Type in all cases: in vivo
[1] = system: velvetleaf (Abutilion theophrasti); experiment: Postemergence herbicidal activity, velvetleaf; conditions: foliar spray, visual after 2 weeks, 0 no injury, 100 complete kill
Method: (§1) Seeds of the desired test plant species were planted in Grace-Sierra MetroMix® 306 planting mixture, which typically has a pH of 6.0 to 6.8 and an organic matter content of about 30 percent, in plastic pots with a surface area of 64 square centimeters. When required to ensure good germination and healthy plants, a fungicide treatment and/or other chemical or physical treatment was applied. The plants were grown for 7-21 days in a greenhouse with an approximately 15 hr photoperiod which was maintained at about 23-29° C. during the day and 22-28° C. during the night. Nutrients and water were added on a regular basis and supplemental lighting was provided with overhead metal halide 1000 Watt lamps as necessary. The plants were employed for testing when they reached the first or second true leaf stage. A weighed amount of each test compound, determined by the highest rate to be tested, was placed in a 20 mL glass vial and was dissolved in 4 mL of a 97:3 v/v (volume/volume) mixture of acetone and dimethyl sulfoxide to obtain concentrated stock solutions. […] The concentrated stock solutions obtained were diluted with an aqueous mixture containing acetone, water, iso-propyl alcohol, dimethyl sulfoxide, Atplus 411F crop oil concentrate, and Triton X-155 surfactant (methylenebisdiamyl phenoxy polyethoxy ethanol) in a 48.5:39:10:1.5:1.0:0.02 v/v ratio to obtain spray solutions of known concentration. The solutions containing the highest concentration to be tested were prepared by diluting 2 mL aliquots of the stock solution with 13 mL of the mixture and lower concentrations were prepared by dilution of appropriate smaller portions of the stock solution. Approximately 1.5 mL aliquots of each solution of known concentration were sprayed evenly onto each of the test plant pots using a DeVilbiss atomizer driven by compressed air pressure of 2 to 4 psi (140 to 280 kilopascals) to obtain thorough coverage of each plant. Control plants were sprayed in the same manner with the aqueous mixture. In this test an application rate of 1 ppm results in the application of approximately 1 g/ha. The treated plants and control plants were placed in a greenhouse as described above and watered by sub-irrigation to prevent wash-off of the test compounds. After 2 weeks the condition of the test plants as compared with that of the untreated plants was determined visually and scored on a scale of 0 to 100 percent where 0 corresponds to no injury and 100 corresponds to complete kill.

[2] = system: crabgrass (Digitaria sanguinalis); experiment: Preemergence herbicidal activity, crabgrass; conditions: soil spray, visual after 3 weeks, 0 no injury, 100 complete kill or no germination
Method: (§2) The soil matrix was contained in plastic pots with a surface area of 161 square centimeters. When required to ensure good germination and healthy plants, a fungicide treatment and/or other chemical or physical treatment was applied. A weighed amount, determined by the highest rate to be tested, of each test compound was placed in a 20 mL glass vial and was dissolved in 8 mL of a 97:3 v/v (volume/volume) mixture of acetone and dimethyl sulfoxide to obtain concentrated stock solutions. […] The stock solutions obtained were diluted with a 99.9:0.1 mixture of water and Tween® 155 surfactant (ethoxylated sorbitan fatty acid ester) to obtain application solutions of known concentration. The solutions containing the highest concentration to be tested were prepared by diluting 4 mL aliquots of the stock solution with 8.5 mL of the mixture and lower concentrations were prepared by dilution of appropriate smaller portions of the stock solution. A 2.5 mL aliquot of each solution of known concentration was sprayed evenly onto the soil of each seeded pot using a Cornwall 5.0 mL glass syringe fitted with a TeeJet TN-3 hollow cone nozzle to obtain thorough coverage of the soil in each pot. Control pots were sprayed in the same manner with the aqueous mixture. A highest application rate of 4.48 kg/ha is achieved when 50 mg of test compound is employed. The treated pots and control pots were placed in a greenhouse with an approximately 15 hr photoperiod which was maintained at about 23-29° C. during the day and 22-28° C. during the night. Nutrients and water were added on a regular basis and supplemental lighting was provided with overhead metal halide 1000 Watt lamps as necessary. The water was added by top-irrigation. After 3 weeks the condition of the test plants that germinated and grew as compared with that of the untreated plants that germinated and grew was determined visually and scored on a scale of 0 to 100 percent where 0 corresponds to no injury and 100 corresponds to complete kill or no germination.

[3] = system: wild poinsettia (Euphorbia heterophylla); experiment: Preemergence herbicidal activity, wild poinsettia; conditions: soil spray, visual after 3 weeks, 0 no injury, 100 complete kill or no germination
Method: as §2

[4] = system: Rox orange sorghum (Sorghum bicolor); experiment: Preemergence herbicidal activity, Rox orange sorghum; conditions: soil spray, visual after 3 weeks, 0 no injury, 100 complete kill or no germination
Method: as §2

[5] = system: giant foxtail (Setaria faberi); experiment: Preemergence herbicidal activity, giant foxtail; conditions: soil spray, visual after 3 weeks, 0 no injury, 100 complete kill or no germination
Method: as §2

[6] = system: blackgrass (Alopecurus myosuroides); experiment: Postemergence herbicidal activity, blackgrass; conditions: foliar spray, visual after 2 weeks, 0 no injury, 100 complete kill
Method: as §1

[7] = system: barnyardgrass (Echinochloa crus-galli); experiment: Preemergence herbicidal activity, barnyardgrass; conditions: soil spray, visual after 3 weeks, 0 no injury, 100 complete kill or no germination
Method: as §2

[8] = system: cocklebur (Xanthium strumarium); experiment: Postemergence herbicidal activity, cocklebur; conditions: foliar spray, visual after 2 weeks, 0 no injury, 100 complete kill
Method: as §1

[9] = system: Rox orange sorghum (Sorghum bicolor); experiment: Postemergence herbicidal activity, Rox orange sorghum; conditions: foliar spray, visual after 2 weeks, 0 no injury, 100 complete kill
Method: as §1

[10] = system: morningglory (Ipomoea hederacea); experiment: Postemergence herbicidal activity, morningglory; conditions: foliar spray, visual after 2 weeks, 0 no injury, 100 complete kill
Method: as §1

[11] = system: wild oats (Avena fatua); experiment: Postemergence herbicidal activity, wild oats; conditions: foliar spray, visual after 2 weeks, 0 no injury, 100 complete kill
Method: as §1

[12] = system: wild oats (Avena fatua); experiment: Preemergence herbicidal activity, wild oats; conditions: soil spray, visual after 3 weeks, 0 no injury, 100 complete kill or no germination
Method: as §2

[13] = system: chickweed (Stellaria media); experiment: Postemergence herbicidal activity, chickweed; conditions: foliar spray, visual after 2 weeks, 0 no injury, 100 complete kill
Method: as §1

[14] = system: velvetleaf (Abutilion theophrasti); experiment: Preemergence herbicidal activity, velvetleaf; conditions: soil spray, visual after 3 weeks, 0 no injury, 100 complete kill or no germination
Method: as §2

[15] = system: blackgrass (Alopecurus myosuroides); experiment: Preemergence herbicidal activity, blackgrass; conditions: soil spray, visual after 3 weeks, 0 no injury, 100 complete kill or no germination
Method: as §2

[16] = system: lambsquarters (Chenopodium album); experiment: Preemergence herbicidal activity, lambsquarters; conditions: soil spray, visual after 3 weeks, 0 no injury, 100 complete kill or no germination
Method: as §2

[17] = system: cocklebur (Xanthium strumarium); experiment: Preemergence herbicidal activity, cocklebur; conditions: 4.4 g/Ha, soil spray, visual after 3 weeks; 0 no injury, 100 complete kill or no germination
Method: as §2

[18] = system: giant foxtail (Setaria faberi); experiment: Postemergence herbicidal activity, giant foxtail; conditions: foliar spray, visual after 2 weeks, 0 no injury, 100 complete kill
Method: as §1

[19] = system: pigweed (Amaranthus retroflexus); experiment: Postemergence herbicidal activity, pigweed; conditions: foliar spray, visual after 2 weeks, 0 no injury, 100 complete kill
Method: as §1

[20] = system: viola (Viola tricolor); experiment: Postemergence herbicidal activity, viola; conditions: foliar spray, visual after 2 weeks, 0 no injury, 100 complete kill
Method: as §1

[21] = system: lambsquarters (Chenopodium album); experiment: Postemergence herbicidal activity, lambsquarters; conditions: foliar spray, visual after 2 weeks, 0 no injury, 100 complete kill
Method: as §1

[22] = system: pigweed (Amaranthus retroflexus); experiment: Preemergence herbicidal activity, pigweed; conditions: soil spray, visual after 3 weeks, 0 no injury, 100 complete kill or no germination
Method: as §2

[23] = system: morningglory (Ipomoea hederacea); experiment: Preemergence herbicidal activity, morningglory; conditions: soil spray, visual after 3 weeks, 0 no injury, 100 complete kill or no germination
Method: as §2

[24] = system: wild buckwheat (Polygonum convolvulus); experiment: Postemergence herbicidal activity, wild buckwheat; conditions: 15.6 ppm, foliar spray, visual after 2 weeks; 0 no injury, 100 complete kill
Method: as §1

## CCOc1cscc1S(=O)(=O)Nc1nc2c(OC)cnc(OC)n2n1 [Compound 13]
[1]; 7.8 ppm
  ABUTH postemergence injury score 0-100: 95%
[2]; 4.4 g/Ha
  DIGSA preemergence injury score 0-100: 100%
[3]; 4.4 g/Ha
  EPHHL preemergence injury score 0-100: 100%
[4]; 4.4 g/Ha
  SORBI preemergence injury score 0-100: 100%
[5]; 4.4 g/Ha
  SETFA preemergence injury score 0-100: 100%
[6]; 7.8 ppm
  ALOMY postemergence injury score 0-100: 80%
[7]; 4.4 g/Ha
  ECHCG preemergence injury score 0-100: 100%
[8]; 7.8 ppm
  XANST postemergence injury score 0-100: 95%
[9]; 7.8 ppm
  SORBI postemergence injury score 0-100: 95%
[10]; 7.8 ppm
  IPOHE postemergence injury score 0-100: 75%
[11]; 7.8 ppm
  AVEFA postemergence injury score 0-100: 85%
[12]; 4.4 g/Ha
  AVEFA preemergence injury score 0-100: 100%
[13]; 7.8 ppm
  STEME postemergence injury score 0-100: 95%
[14]; 4.4 g/Ha
  ABUTH preemergence injury score 0-100: 80%
[15]; 4.4 g/Ha
  ALOMY preemergence injury score 0-100: 100%
[16]; 4.4 g/Ha
  CHEAL preemergence injury score 0-100: 100%
[17]
  XANST preemergence injury score 0-100: 80%
[18]; 7.8 ppm
  SETFA postemergence injury score 0-100: 95%
[19]; 7.8 ppm
  AMARE postemergence injury score 0-100: 100%
[20]; 7.8 ppm
  VIOTR postemergence injury score 0-100: 75%
[21]; 7.8 ppm
  CHEAL postemergence injury score 0-100: 90%
[22]; 4.4 g/Ha
  AMARE preemergence injury score 0-100: 90%
[23]; 4.4 g/Ha
  IPOHE preemergence injury score 0-100: 90%

## COc1csc(C(F)(F)F)c1S(=O)(=O)Nc1nc2c(OC)cnc(OC)n2n1 [Compound 10]
[1]; 15.6 ppm
  ABUTH postemergence injury score 0-100: 90%
[2]; 8.8 g/Ha
  DIGSA preemergence injury score 0-100: 70%
[3]; 8.8 g/Ha
  EPHHL preemergence injury score 0-100: 75%
[24]
  POLCO postemergence injury score 0-100: 70%
[4]; 8.8 g/Ha
  SORBI preemergence injury score 0-100: 100%
[5]; 8.8 g/Ha
  SETFA preemergence injury score 0-100: 90%
[6]; 15.6 ppm
  ALOMY postemergence injury score 0-100: 50%
[7]; 8.8 g/Ha
  ECHCG preemergence injury score 0-100: 90%
[8]; 15.6 ppm
  XANST postemergence injury score 0-100: 100%
[9]; 15.6 ppm
  SORBI postemergence injury score 0-100: 80%
[10]; 15.6 ppm
  IPOHE postemergence injury score 0-100: 80%
[11]; 15.6 ppm
  AVEFA postemergence injury score 0-100: 80%
[12]; 8.8 g/Ha
  AVEFA preemergence injury score 0-100: 90%
[13]; 15.6 ppm
  STEME postemergence injury score 0-100: 98%
[14]; 8.8 g/Ha
  ABUTH preemergence injury score 0-100: 70%
[15]; 8.8 g/Ha
  ALOMY preemergence injury score 0-100: 90%
[16]; 8.8 g/Ha
  CHEAL preemergence injury score 0-100: 95%
[18]; 15.6 ppm
  SETFA postemergence injury score 0-100: 90%
[19]; 15.6 ppm
  AMARE postemergence injury score 0-100: 95%
[20]; 15.6 ppm
  VIOTR postemergence injury score 0-100: 90%
[21]; 15.6 ppm
  CHEAL postemergence injury score 0-100: 70%
[22]; 8.8 g/Ha
  AMARE preemergence injury score 0-100: 100%
[23]; 8.8 g/Ha
  IPOHE preemergence injury score 0-100: 80%
